Data on 20 molecules can be found in patent US10442804B2, “Compounds for the treatment of hepatitis B virus infection” (Gilead Sciences, Inc., priority 2017, dated 2019).

The subject of data set [1] is HBV-infected NTCP-HepG2 cells, secreted HBsAg. In words: microbe, parasite or virus in culture. The format is cell-based, hepatitis B virus (genotype D, AD38-derived). The following applies: Hepatitis B virus, 120 h, secreted HBsAg in supernatant after 5 days; geometric mean of minimum four determinations; read-out: NTCP HBsAg EC50. As to the method:
NTCP-HepG2 Antiviral Assay for Secreted HBsAg
HepG2 cells stably expressing sodium-taurocholate cotransporting polypeptide (NTCP-HepG2) were grown in Dulbecco's Modified Eagle Medium (DMEM) without sodium pyruvate (Thermo Fisher Scientific, Waltham, Mass.) supplemented with 10% fetal bovine serum, 2 mM L-glutamine, 1% penicillin/streptomycin, and 0.25 mg/mL G-418. NTCP-HepG2 cells were infected with 4000 genome equivalent per cell of genotype D (AD38-derived) HBV in DMEM without sodium pyruvate (Thermo Fisher Scientific, Waltham, Mass.) supplemented with 2% fetal bovine serum, 2 mM L-glutamine, 1% penicillin/streptomycin, 2.5% DMSO, and 4% PEG 8000 (Promega, Madison, Wis.). After 24-hour incubation, cells were washed three times with OptiMEM (Thermo Fisher Scientific, Waltham, Mass.) and fed with fresh DMEM without sodium pyruvate (Thermo Fisher Scientific, Waltham, Mass.) supplemented with 2% fetal bovine serum, 2 mM L-glutamine, 1% penicillin/streptomycin, and 2.5% DMSO. At 4 days after infection, infected NTCP-HepG2 cells were seeded on 384-well plates pre-coated with collagen at a density of 20000 cells per well containing serially diluted compounds of the present disclosure or DMSO (0.5%) in a final volume of 80 μl of DMEM without sodium pyruvate (Thermo Fisher Scientific, Waltham, Mass.) supplemented with 2% fetal bovine serum, 2 mM L-glutamine, 1% penicillin/streptomycin, and 1% DMSO. After an incubation time of 5 days, cell culture supernatant was collected and measured for HBsAg.
Secreted HBsAg in the supernatant were measured using a multiplex chemiluminescent MSD assay (Meso Scale Discovery, Rockville, Md.) using capture and detection antibody pairs specific for HBsAg. The EC50 values were calculated from the fit of the dose-response curves to a four-parameter equation. All EC50 values represent geometric mean values of a minimum of four determinations.

The nature of the next data set: MT-4 cytotoxicity assay. To be noted: human. The format is cell-based, human. As to the method:
Biological Example 2: MT-4 Cytotoxicity Assay
The MT-4 cell line (HTLV-1 transformed, human T lymphoblastoid cells) was obtained from the NIH AIDS Reagent program (Bethesda, Md.). MT-4 cells were maintained in RPMI-1640 media (Thermo Fisher Scientific, Waltham, Mass.) supplemented with 10% fetal bovine serum, 100 Units/mL penicillin, and 100 μg/mL streptomycin. For the MT-4 cytotoxicity assay, 0.4 μL of serially diluted solutions of certain compounds disclosed herein were added to 40 μL of cell maintenance media in 384-well black, solid bottom plate using a Biomek FX workstation (Beckman Coulter, Brea, Calif.). Two thousand cells in 35 μL were added to each well using a Biotek uFlow Workstation (Biotek, Winooski, Vt.). Each assay plate contained 10 μM puromycin (final concentration) and 0.5% DMSO in RPMI-1640 media as positive and negative controls, respectively. Assay plates were incubated for five days at 37° C. in an incubator set at 5% CO2 and 90% humidity. After five days, 22 μL of Cell Titer Glo reagent (Promega, Madison, Wis.) was added to the assay plates with a Biotek uFlow Workstation. Plates were subsequently placed on an Envision Plate Reader (Perkin Elmer, Waltham, Mass.) for five minutes before the luminescence signal was read. CC50 values were defined as the compound concentration that caused a 50% decrease in luminescence signal, and were calculated by non-linear regression using Pipeline Pilot software by applying a four parameter fit equation (Accelrys, San Diego, Calif.) and are reported in the following Table 1.

The mark [2] stands for this setting: five days, Cell Titer Glo luminescence, read-out: MT-4 CC50.

Where two headings read alike, the source gives them in different places.

Turning to `CC(C)(O)C#Cc1cc2c(cc1C1CC1)-c1cc(=O)c(C(=O)O)cn1N1[C@@H]2CCC1(C)C` [Example 71, (R)-11-cyclopropyl-12-(3-hydroxy-3-methylbut-1-yn-1-yl)-3,3-dimethyl-8-oxo-2,3,8,13b-tetrahydro-1H-pyrido[2,1-a]pyrrolo[1,2-c]phthalazine-7-carboxylic acid], in data set [1], the EC50 (in general, the concentration giving half of the maximal effect) was determined as 2.5 nM. The CC50 (as a rule, the concentration that lowers cell viability or growth by half) at 5 days in “MT-4 cytotoxicity assay” (setting [2]) is above 10000 nM.

With `CC1(C)CC[C@@H]2c3cc(OCC45CC(C#N)(C4)C5)c(OC(F)F)cc3-c3cc(=O)c(C(=O)O)cn3N21` [Example 104, (R)-12-((3-cyanobicyclo[1.1.1]pentan-1-yl)methoxy)-11-(difluoromethoxy)-3,3-dimethyl-8-oxo-2,3,8,13b-tetrahydro-1H-pyrido[2,1-a]pyrrolo[1,2-c]phthalazine-7-carboxylic acid], the EC50 in data set [1] amounted to 2.7 nM. Moreover, the CC50 at 5 days in “MT-4 cytotoxicity assay” (setting [2]) was above 10000 nM.

On to `COCc1cc2c(cc1OCC13CC(C#N)(C1)C3)[C@H]1CCC3(CC3)N1n1cc(C(=O)O)c(=O)cc1-2` [Compound 107, (R)-12′-((3-cyanobicyclo[1.1.1]pentan-1-yl)methoxy)-11′-(methoxymethyl)-8′-oxo-1′,2′,8′,13b′-tetrahydrospiro[cyclopropane-1,3′-pyrido[2,1-a]pyrrolo[1,2-c]phthalazine]-7′-carboxylic acid], for which, in data set [1], the EC50 amounted to 5.9 nM. The molecule also returned a CC50 at 5 days in the data set “MT-4 cytotoxicity assay” (MT-4 CC50) of 7800 nM.

Turning to `CC1(C)CC[C@@H]2c3cc(OCC4CC(F)(F)C4)c(Cl)cc3-c3cc(=O)c(C(=O)O)cn3N21` [Example 54, (R)-11-chloro-12-((3,3-difluorocyclobutyl)methoxy)-3,3-dimethyl-8-oxo-2,3,8,13b-tetrahydro-1H-pyrido[2,1-a]pyrrolo[1,2-c]phthalazine-7-carboxylic acid], the EC50 in data set [1] was determined as 0.75 nM. Besides, in the data set “MT-4 cytotoxicity assay” (setting [2]), the CC50 at 5 days stood at 5300 nM.

Turning to `COCCCOc1cc2c(cc1OC(F)F)-c1cc(=O)c(C(=O)O)cn1N1[C@@H]2CCC1(C)C` (single isomer, unassigned) [Example 19], the EC50 in data set [1] is 1.2 nM. Besides, in “MT-4 cytotoxicity assay” (setting [2]), the CC50 at 5 days is above 10000 nM.

Turning to `CC1(C)CC[C@@H]2c3cc(OCCCOC4COC4)c(Cl)cc3-c3cc(=O)c(C(=O)O)cn3N21` [Example 98, (R)-11-chloro-3,3-dimethyl-12-(3-(oxetan-3-yloxy)propoxy)-8-oxo-2,3,8,13b-tetrahydro-1H-pyrido[2,1-a]pyrrolo[1,2-c]phthalazine-7-carboxylic acid], the EC50 in data set [1] amounted to 2.2 nM. For the same molecule, the CC50 at 5 days in the data set “MT-4 cytotoxicity assay” (setting [2]) is above 10000 nM.

Turning to `COc1cc2c(cc1OCCC(C)(C)OC)[C@H]1CCC(C)(C)N1n1cc(C(=O)O)c(=O)cc1-2` [Example 64, (R)-11-methoxy-12-(3-methoxy-3-methylbutoxy)-3,3-dimethyl-8-oxo-2,3,8,13b-tetrahydro-1H-pyrido[2,1-a]pyrrolo[1,2-c]phthalazine-7-carboxylic acid], in data set [1], the EC50 worked out at 0.84 nM. In “MT-4 cytotoxicity assay” (setting [2]), the CC50 at 5 days is above 10000 nM.

With `CC1(C)CC[C@@H]2c3cc(C#Cc4ccc(N)nc4)c(OC(F)F)cc3-c3cc(=O)c(C(=O)O)cn3N21` [Compound 106, (R)-12-((6-aminopyridin-3-yl)ethynyl)-11-(difluoromethoxy)-3,3-dimethyl-8-oxo-2,3,8,13b-tetrahydro-1H-pyrido[2,1-a]pyrrolo[1,2-c]phthalazine-7-carboxylic acid], in data set [1], the EC50 came out at 0.37 nM. Besides, the CC50 at 5 days in “MT-4 cytotoxicity assay” (setting [2]) was 7500 nM.

Regarding `COCCCOc1cc2c(cc1OC)-c1cc(=O)c(C(=O)O)cn1N1[C@H]2CCC1(C)C` [Example 15, (S)-11-methoxy-12-(3-methoxypropoxy)-3,3-dimethyl-8-oxo-2,3,8,13b-tetrahydro-1H-pyrido[2,1-a]pyrrolo[1,2-c]phthalazine-7-carboxylic acid], the EC50 in data set [1] is 350 nM. Further, the CC50 at 5 days in the data set “MT-4 cytotoxicity assay” (setting [2]) was above 10000 nM.

As to `[2H]C([2H])(OC)C([2H])([2H])C([2H])([2H])Oc1cc2c(cc1COC)-c1cc(=O)c(C(=O)O)cn1N1[C@@H]2CCC1(C)C` [Compound 118, (R)-11-(methoxymethyl)-12-(3-methoxypropoxy-1,1,2,2,3,3-d6)-3,3-dimethyl-8-oxo-2,3,8,13b-tetrahydro-1H-pyrido[2,1-a]pyrrolo[1,2-c]phthalazine-7-carboxylic acid], the EC50 in data set [1] was 4.1 nM. In addition, the CC50 at 5 days in the data set “MT-4 cytotoxicity assay” (setting [2]) was above 10000 nM.

For `COCCCOc1cc2c(cc1Cl)-c1cc(=O)c(C(=O)O)cn1N1[C@H]2CCCC1(C)C` (single isomer, unassigned) [Example 13], the EC50 in data set [1] was found to be 34 nM. Also, the CC50 at 5 days in “MT-4 cytotoxicity assay” (setting [2]) is above 10000 nM.

Regarding `CC1(C)CC[C@@H]2c3cc(OCCCOC(F)(F)F)c(Cl)cc3-c3cc(=O)c(C(=O)O)cn3N21` [Example 55, (R)-11-chloro-3,3-dimethyl-8-oxo-12-(3-(trifluoromethoxy)propoxy)-2,3,8,13b-tetrahydro-1H-pyrido[2,1-a]pyrrolo[1,2-c]phthalazine-7-carboxylic acid], the EC50 in data set [1] amounted to 3.7 nM. In addition, the CC50 at 5 days in the data set “MT-4 cytotoxicity assay” (setting [2]) worked out at 6800 nM.

Regarding `COCc1cc2c(cc1OCC1(COC)CC1)[C@H]1CCC(C)(C)N1n1cc(C(=O)O)c(=O)cc1-2` [Compound 109, (R)-11-(methoxymethyl)-12-((1-(methoxymethyl)cyclopropyl)methoxy)-3,3-dimethyl-8-oxo-2,3,8,13b-tetrahydro-1H-pyrido[2,1-a]pyrrolo[1,2-c]phthalazine-7-carboxylic acid], in data set [1], the EC50 was 13.2 nM. Also, the CC50 at 5 days in the data set “MT-4 cytotoxicity assay” (setting [2]) is above 10000 nM.

For `COCCCOc1cc2c(cc1Cl)-c1cc(=O)c(C(=O)O)cn1N1CCCC21` (stereo not shown) [Example 1, 11-chloro-12-(3-methoxypropoxy)-8-oxo-2,3,8,13b-tetrahydro-1H-pyrido[2,1-a]pyrrolo[1,2-c]phthalazine-7-carboxylic acid], the EC50 in data set [1] turned out to be 90 nM. In “MT-4 cytotoxicity assay” (setting [2]), the CC50 at 5 days worked out at 8000 nM.

In the case of `COCCCOc1cc2c(cc1Cl)-c1cc(=O)c(C(=O)O)cn1N1[C@@H]2CC[C@@H]1C` (single isomer, unassigned) [Example 10], in data set [1], the EC50 was found to be 5.7 nM. For the same molecule, the CC50 at 5 days in the data set “MT-4 cytotoxicity assay” (setting [2]) is above 10000 nM.

As for `CC1(C)CC[C@@H]2c3cc(OCC45CC(C#N)(C4)C5)c(OC(F)(F)F)cc3-c3cc(=O)c(C(=O)O)cn3N21` [Example 92, (R)-12-((3-cyanobicyclo[1.1.1]pentan-1-yl)methoxy)-3,3-dimethyl-8-oxo-11-(trifluoromethoxy)-2,3,8,13b-tetrahydro-1H-pyrido[2,1-a]pyrrolo[1,2-c]phthalazine-7-carboxylic acid], the EC50 in data set [1] turned out to be 3 nM. In addition, the CC50 at 5 days in “MT-4 cytotoxicity assay” (setting [2]) was determined as 8100 nM.

As to `COCCCOc1cc2c(cc1OC(F)F)-c1cc(=O)c(C(=O)O)cn1N1[C@H]2CCC1(C)C` (single isomer, unassigned) [Example 20], the EC50 in data set [1] is 43 nM. In addition, in the data set “MT-4 cytotoxicity assay” (setting [2]), the CC50 at 5 days was above 10000 nM.

In the case of `COCCCOc1cc2c(cc1Cl)-c1cc(=O)c(C(=O)O)cn1N1CC(C)(C)C[C@@H]21` (single isomer, unassigned) [Example 30], the EC50 in data set [1] worked out at 10 nM. Besides, the CC50 at 5 days in the data set “MT-4 cytotoxicity assay” (setting [2]) is above 10000 nM.

In the case of `COCCCOc1cc2c(cc1CO)-c1cc(=O)c(C(=O)O)cn1N1[C@@H]2CCC1(C)C` [Compound 113, (R)-11-(hydroxymethyl)-12-(3-methoxypropoxy)-3,3-dimethyl-8-oxo-2,3,8,13b-tetrahydro-1H-pyrido[2,1-a]pyrrolo[1,2-c]phthalazine-7-carboxylic acid], the EC50 in data set [1] was found to be 22.7 nM. Also, the CC50 at 5 days in “MT-4 cytotoxicity assay” (setting [2]) was above 10000 nM.

Take `COc1cc2c(cc1OCCCOC(F)(F)F)[C@H]1CCC(C)(C)N1n1cc(C(=O)O)c(=O)cc1-2` [Example 58, (R)-11-methoxy-3,3-dimethyl-8-oxo-12-(3-(trifluoromethoxy)propoxy)-2,3,8,13b-tetrahydro-1H-pyrido[2,1-a]pyrrolo[1,2-c]phthalazine-7-carboxylic acid]: the EC50 in data set [1] is 4.8 nM. The CC50 at 5 days in “MT-4 cytotoxicity assay” (setting [2]) was 9300 nM.
